The text below walks through data of article PMC12724307, “Characterization of the initial degradation mechanism involved in C-glycosylated isoflavone puerarin in soil microorganism” (Applied and Environmental Microbiology, 2025).

This assay deals with T1, PurA.
T1 construct: ORF of 1,551 nt, pET24a(+), His-tagged, E. coli Rosetta2 (DE3), Ni-column; calculated 55,563 Da; monomer
The assay can be described thus: peroxidase-coupled H2O2 assay (DAOS/4-aminoantipyrine). The settings on record: oxygen as electron acceptor; Tris-HCl pH 8.0; 28°C; apparent steady-state constants. Type of assay: biochemical, Paenarthrobacter sp. No. 37.

`O=c1c(-c2ccc(O)cc2)coc2c([C@@H]3O[C@H](CO)[C@@H](O)[C@H](O)[C@H]3O)c(O)ccc12` [compound 1, puerarin]: the Km worked out at 43.4 ± 6.6 µM.

By Km is commonly meant the substrate concentration at which the rate is half of its maximum.
